IC50 data for 15 compounds are collected here from ChEMBL document CHEMBL3351345, “Design, synthesis, and structure-activity relationships of novel benzothiazole derivatives bearing the ortho-hydroxy N-carbamoylhydrazone moiety as potent antitumor agents” (Eur J Med Chem, 2014).

One assay has as its system NCI-H226. Description: Antiproliferative activity against human NCI-H226 cells after 72 hrs by MTT assay. The format is functional, cell-based. To be noted: NCI-H226, 72 h.
The test system of a further assay is SK-N-SH. Description: Antiproliferative activity against human SK-N-SH cells after 72 hrs by MTT assay. The format is functional, cell-based.
The next assay concerns HT-29. The assay can be described thus: Antiproliferative activity against human HT-29 cells after 72 hrs by MTT assay. The format is functional, cell-based. Particulars: HT-29, 72 h.
Assay [1] is described as follows: Antiproliferative activity against human MKN45 cells after 72 hrs by MTT assay. The assay is classed as functional, cell-based. Particulars: MKN-45, 72 h.
The next assay concerns MDA-MB-231. The assay can be described thus: Antiproliferative activity against human MDA-MB-231 cells after 72 hrs by MTT assay. Particulars: MDA-MB-231, 72 h.

Regarding `CC1CCN(Cc2ccc3nc(NC(=O)N/N=C/c4ccc(OCc5ccc(Cl)cc5)cc4O)sc3c2)CC1`, the IC50 in the assay on NCI-H226 was found to be 0.41 µM; in the assay with SK-N-SH, 1.06 µM; with HT-29, 0.95 µM; in assay [1] it was 0.21 µM; in the assay on MDA-MB-231, 0.88 µM.

As to `CN(C)Cc1ccc2nc(NC(=O)N/N=C/c3ccc(OCc4ccc(Cl)cc4)cc3O)sc2c1`, the IC50 was 1.17 µM in the assay with NCI-H226; 2.74 µM in the assay with SK-N-SH; 2.15 µM in the assay with HT-29; 0.7 µM in assay [1]; 0.6 µM in the assay with MDA-MB-231.

On to `CC1CCN(Cc2ccc3nc(NC(=O)N/N=C/c4ccc(OCc5csc(Cc6ccc7c(c6)OCO7)n5)cc4O)sc3c2)CC1`, for which the half-maximal inhibitory concentration (IC50) in the assay with NCI-H226 was 0.81 µM; in the assay on SK-N-SH, 1.25 µM; in the assay on HT-29 it was 1.12 µM; in assay [1], 0.55 µM; with MDA-MB-231 it was 0.88 µM.

As for `CC1CCN(Cc2ccc3nc(NC(=O)N/N=C/c4ccccc4O)sc3c2)CC1`, the IC50 amounted to 2.96 µM with NCI-H226; 4.36 µM in the assay on SK-N-SH; 10.4 µM with HT-29; 0.68 µM in assay [1]; 12.3 µM in the assay with MDA-MB-231.

For the compound `Cc1ccc(COc2ccc(/C=N/NC(=O)Nc3nc4ccc(CN5CCC(C)CC5)cc4s3)c(O)c2)cc1`, the IC50 turned out to be 1.06 µM in the assay with NCI-H226; 1.56 µM in the assay with SK-N-SH; 1.04 µM in the assay with HT-29; 0.31 µM in assay [1]; 1.51 µM with MDA-MB-231.

As to `CCN(CC)Cc1ccc2nc(NC(=O)N/N=C/c3ccc(OCc4ccccc4)cc3O)sc2c1`, the values for the IC50 with NCI-H226, in the assay on SK-N-SH and with HT-29 were 0.88 µM, 1.67 µM and 1.44 µM, respectively.

Take `CN(C)Cc1ccc2nc(NC(=O)N/N=C/c3ccc(OCc4cccc(Cl)c4)cc3O)sc2c1`: the IC50 with NCI-H226 was determined as 0.36 µM; in the assay on SK-N-SH, 1.19 µM; in the assay with HT-29, 2.94 µM; in assay [1], 0.19 µM; in the assay on MDA-MB-231, 0.54 µM.

As to `CCN(CC)Cc1ccc2nc(NC(=O)N/N=C/c3ccc(O)cc3O)sc2c1`, the IC50 in the assay with NCI-H226 amounted to 5.16 µM; in the assay on SK-N-SH it was 6.05 µM; in the assay with HT-29 it was 23.7 µM; in assay [1], 1.74 µM; in the assay on MDA-MB-231 it was 4.11 µM.

On to `CC1CCN(Cc2ccc3nc(NC(=O)N/N=C/c4ccc(OCc5ccccc5)cc4O)sc3c2)CC1`, for which the IC50 in the assay with NCI-H226 was 0.61 µM; in the assay with SK-N-SH it was 1.32 µM; with HT-29, 1.57 µM.

For the compound `CCN(CC)Cc1ccc2nc(NC(=O)N/N=C/c3ccc(OCc4ccccc4Cl)cc3O)sc2c1`, the IC50 in the assay with NCI-H226 amounted to 0.56 µM; with SK-N-SH, 2.01 µM; in the assay with HT-29, 2.23 µM; in assay [1], 0.42 µM; in the assay on MDA-MB-231, 0.74 µM.

With `CCN(CC)Cc1ccc2nc(NC(=O)N/N=C/c3ccc(OCc4ccc(Cl)cc4Cl)cc3O)sc2c1`, the IC50 in the assay on NCI-H226 was 0.7 µM; in the assay on SK-N-SH, 1.04 µM; with HT-29, 2.43 µM; in assay [1], 0.52 µM; with MDA-MB-231 it was 1.52 µM.

As for `CN(C)Cc1ccc2nc(NC(=O)N/N=C/c3ccc(OCc4ccccc4Cl)cc3O)sc2c1`, the IC50 in the assay on NCI-H226 was 0.58 µM; with SK-N-SH, 2.94 µM; with HT-29, 1.61 µM; in assay [1], 0.33 µM; in the assay with MDA-MB-231, 0.68 µM.

In the case of `O=C(N/N=C/c1ccc(OCc2csc(Cc3ccc4c(c3)OCO4)n2)cc1O)Nc1nc2ccc(N3CCOCC3)cc2s1`, the IC50 was found to be 2.14 µM in the assay on NCI-H226; 6.21 µM in the assay with SK-N-SH; 2.31 µM in the assay on HT-29; 1.01 µM in assay [1]; 4.03 µM in the assay on MDA-MB-231.

For `O=C(N/N=C/c1ccc(OCc2cccc(Cl)c2)cc1O)Nc1nc2ccc(N3CCOCC3)cc2s1`, the IC50 turned out to be 0.79 µM with NCI-H226; 1.48 µM in the assay with SK-N-SH; 0.59 µM with HT-29; 0.28 µM in assay [1]; 1.18 µM in the assay on MDA-MB-231.

With `CN(C)Cc1ccc2nc(NC(=O)N/N=C/c3ccc(OCc4csc(Cc5ccc6c(c5)OCO6)n4)cc3O)sc2c1`, the IC50 came out at 0.72 µM in the assay with NCI-H226; 0.79 µM in the assay on SK-N-SH; 1.88 µM with HT-29; 0.62 µM in assay [1]; 1.04 µM in the assay with MDA-MB-231.
